IC50 data for 22 compounds are collected here from patent US12391679B2, “Benzamide-substituted bicyclic imidazo- and pyrazolo-fused -pyridine, -pyrimide, and -pyridazine compounds for treatment of inflammatory diseases” (ONCO3R Therapeutics BV, priority 2019, dated 2025).

A value given as a limit tells only on which side of the number the result lay.

For orientation: IC50 means the concentration that gives 50% inhibition. Read a low IC50 as higher potency.

What all share (assay type): biochemical
For one experiment, the target named is T1, SIK3 (Homo sapiens, UniProt Q9Y2K2).
T1 construct: purchased SignalChem S12-11G-100
T1 sequence (Q9Y2K2 59-365 limits assumed): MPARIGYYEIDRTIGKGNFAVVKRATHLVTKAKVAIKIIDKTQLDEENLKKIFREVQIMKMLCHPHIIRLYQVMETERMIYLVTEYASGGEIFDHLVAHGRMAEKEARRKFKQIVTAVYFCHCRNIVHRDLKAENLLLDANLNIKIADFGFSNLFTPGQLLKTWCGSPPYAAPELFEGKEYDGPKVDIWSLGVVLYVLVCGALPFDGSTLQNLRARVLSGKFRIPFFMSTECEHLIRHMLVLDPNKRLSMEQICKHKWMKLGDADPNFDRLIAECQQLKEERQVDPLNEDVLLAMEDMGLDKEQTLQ
As to the kind of experiment: ADP-Glo kinase assay, SIK3. The method in brief: (§1)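 ADP-Glo format, luminescent. Room-temperature kinase reaction lasting 120 min, followed by ATP removal (40 min) and ADP detection (30 min); 10 μM staurosporine serves as full-inhibition control, 1% DMSO as uninhibited control.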
(In general: ADP-Glo first removes unused ATP, then detects ADP through luciferase.)

The next experiment deals with T2, SIK1 (Homo sapiens, UniProt P57059).
T2 construct: purchased Carna Biosciences 02-131
T2 sequence (P57059 whole entry): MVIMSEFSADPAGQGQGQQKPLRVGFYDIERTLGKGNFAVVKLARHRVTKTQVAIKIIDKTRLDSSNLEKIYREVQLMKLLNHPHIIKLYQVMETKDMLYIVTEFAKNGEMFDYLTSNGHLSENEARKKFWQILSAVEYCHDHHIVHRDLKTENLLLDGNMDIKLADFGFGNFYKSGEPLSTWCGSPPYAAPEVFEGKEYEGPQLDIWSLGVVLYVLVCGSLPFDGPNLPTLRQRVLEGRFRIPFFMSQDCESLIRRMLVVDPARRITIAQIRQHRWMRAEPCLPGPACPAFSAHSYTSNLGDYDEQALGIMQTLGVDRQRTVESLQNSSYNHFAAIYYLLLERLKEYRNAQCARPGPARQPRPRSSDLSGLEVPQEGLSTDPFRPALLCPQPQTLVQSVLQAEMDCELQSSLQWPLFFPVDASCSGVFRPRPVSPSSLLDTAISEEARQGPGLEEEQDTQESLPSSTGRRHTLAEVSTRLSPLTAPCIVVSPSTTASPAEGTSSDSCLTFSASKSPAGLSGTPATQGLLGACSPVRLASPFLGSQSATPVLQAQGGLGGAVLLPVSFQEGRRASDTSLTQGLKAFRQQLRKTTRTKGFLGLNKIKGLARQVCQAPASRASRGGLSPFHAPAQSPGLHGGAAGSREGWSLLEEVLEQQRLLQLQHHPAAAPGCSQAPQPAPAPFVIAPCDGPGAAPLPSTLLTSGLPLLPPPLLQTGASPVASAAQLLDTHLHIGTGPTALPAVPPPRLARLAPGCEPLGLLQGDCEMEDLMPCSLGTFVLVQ
As to the kind of experiment: ADP-Glo kinase assay, SIK1. In a few lines: as §1

Another experiment addresses T3, SIK2 (Homo sapiens, UniProt Q9H0K1).
T3 construct: purchased ThermoFisher Scientific PV4792
As to the kind of experiment: ADP-Glo kinase assay, SIK2. The method in brief: as §1

T3 sequence (Q9H0K1 whole entry): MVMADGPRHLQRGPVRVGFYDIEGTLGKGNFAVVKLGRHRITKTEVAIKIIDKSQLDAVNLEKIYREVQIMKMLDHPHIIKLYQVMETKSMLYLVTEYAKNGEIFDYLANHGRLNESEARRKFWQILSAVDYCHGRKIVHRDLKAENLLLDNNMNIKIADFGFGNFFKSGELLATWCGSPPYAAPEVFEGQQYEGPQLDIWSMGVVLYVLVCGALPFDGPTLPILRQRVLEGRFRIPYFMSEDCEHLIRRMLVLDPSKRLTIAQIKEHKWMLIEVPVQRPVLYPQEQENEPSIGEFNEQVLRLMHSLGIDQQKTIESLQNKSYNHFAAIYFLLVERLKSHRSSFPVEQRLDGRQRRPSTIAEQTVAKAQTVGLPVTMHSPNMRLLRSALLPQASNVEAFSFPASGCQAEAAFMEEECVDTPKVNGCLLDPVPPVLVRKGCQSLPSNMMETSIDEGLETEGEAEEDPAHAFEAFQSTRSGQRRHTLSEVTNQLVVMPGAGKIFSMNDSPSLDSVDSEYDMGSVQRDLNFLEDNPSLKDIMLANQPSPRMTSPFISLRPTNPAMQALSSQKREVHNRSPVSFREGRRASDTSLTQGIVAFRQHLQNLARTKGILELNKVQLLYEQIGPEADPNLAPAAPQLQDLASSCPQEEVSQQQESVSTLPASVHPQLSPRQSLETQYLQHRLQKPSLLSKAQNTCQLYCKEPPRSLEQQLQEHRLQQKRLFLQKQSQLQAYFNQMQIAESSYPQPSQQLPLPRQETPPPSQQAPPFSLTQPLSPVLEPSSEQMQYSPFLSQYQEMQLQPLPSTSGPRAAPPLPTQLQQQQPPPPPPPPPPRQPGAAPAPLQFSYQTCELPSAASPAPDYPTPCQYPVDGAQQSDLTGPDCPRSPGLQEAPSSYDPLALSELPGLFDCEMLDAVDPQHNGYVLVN

Take `COc1cc(-c2cnc3cc(C(C)(O)CN(C)CCO)ccn23)cc(OC(F)F)c1C(=O)NC1CC1` (stereo not drawn) [Cpd 209, N-cyclopropyl-2-(difluoromethoxy)-4-[7-[1-hydroxy-2-[2-hydroxyethyl(methyl)amino]-1-methyl-ethyl]imidazo[1,2-a]pyridin-3-yl]-6-methoxy-benzamide]: the IC50 is 10 to 100 nM on SIK3, greater than 500 nM on SIK1 and greater than 500 nM on SIK2.

Take `COc1cc(-c2cnc3cc(C4(C)CN(C)CCO4)ccn23)cc(OC(F)F)c1C(=O)NC1CC1` (stereo not drawn) [Cpd 210, N-cyclopropyl-2-(difluoromethoxy)-4-[7-(2,4-dimethylmorpholin-2-yl)imidazo[1,2-a]pyridin-3-yl]-6-methoxy-benzamide]: the IC50 is 10 to 100 nM against SIK3, greater than 500 nM on SIK1 and greater than 500 nM on SIK2.

`COc1cc(-c2cnc3cc(C4(C)CN(C)CCO4)ccn23)cc(OC(F)F)c1C(=O)NCC(F)(F)F` (stereo not drawn) [Cpd 214, 2-(difluoromethoxy)-4-[7-(2,4-dimethylmorpholin-2-yl)imidazo[1,2-a]pyridin-3-yl]-6-methoxy-N-(2,2,2-trifluoroethyl)benzamide]: the results for the IC50 at SIK3, against SIK1 and at SIK2 were 100 to 500 nM, greater than 500 nM and greater than 500 nM, respectively.

As for `COc1cn2c(-c3cc(OC)c(C(=O)NC4CC4)c(OC(F)F)c3)cnc2cc1C1COC1` [Cpd 215, N-cyclopropyl-2-(difluoromethoxy)-6-methoxy-4-[6-methoxy-7-(oxetan-3-yl)imidazo[1,2-a]pyridin-3-yl]benzamide], the IC50 against SIK3 was 10 to 100 nM; against SIK1 it was 100 to 500 nM; on SIK2, 100 to 500 nM.

As for `COc1cc(-c2cnc3cc(C4(Cl)COC4)ccn23)cc(OC(F)F)c1C(=O)NC1CC1` [Cpd 217, 4-[7-(3-chlorooxetan-3-yl)imidazo[1,2-a]pyridin-3-yl]-N-cyclopropyl-2-(difluoromethoxy)-6-methoxy-benzamide], the IC50 against SIK3 is 10 to 100 nM; at SIK1, greater than 500 nM; on SIK2 it was 100 to 500 nM.

Consider `COc1cc(-c2cnc3cc(C4(C)COCCO4)ccn23)cc(OC(F)F)c1C(=O)NC1CC1` (stereo not drawn) [Cpd 220, N-cyclopropyl-2-(difluoromethoxy)-6-methoxy-4-[7-(2-methyl-1,4-dioxan-2-yl)imidazo[1,2-a]pyridin-3-yl]benzamide], for which the IC50 against SIK3 is 10 to 100 nM; against SIK1, greater than 500 nM; on SIK2, greater than 500 nM.

Consider `COc1cc(-c2cnc3cc(C4(N5CCOCC5)COC4)ccn23)cc(OC(F)F)c1C(=O)NC1CC1` [Cpd 222, N-cyclopropyl-2-(difluoromethoxy)-6-methoxy-4-[7-(3-morpholinooxetan-3-yl)imidazo[1,2-a]pyridin-3-yl]benzamide], for which the half-inhibitory concentration (IC50) on SIK3 was 100 to 500 nM; at SIK1 it was greater than 500 nM; against SIK2, greater than 500 nM.

Take `COc1cc(-c2cnc3cc(C(C)(C)N4CCOCC4)ccn23)cc(OC(F)F)c1C(=O)NC1CC1` [Cpd 226, N-cyclopropyl-2-(difluoromethoxy)-6-methoxy-4-[7-(1-methyl-1-morpholino-ethyl)imidazo[1,2-a]pyridin-3-yl]benzamide]: the results for the IC50 against SIK3, against SIK1 and on SIK2 were 10 to 100 nM, greater than 500 nM and greater than 500 nM, respectively.

With `COc1cc(-c2cnn3cc(C(C)(C)OCCO)ccc23)cc(OC(F)F)c1C(=O)NC1CC1` [Cpd 239, N-cyclopropyl-2-(difluoromethoxy)-4-[6-[1-(2-hydroxyethoxy)-1-methyl-ethyl]pyrazolo[1,5-a]pyridin-3-yl]-6-methoxy-benzamide], the IC50 against SIK3 is 10 to 100 nM; at SIK1, greater than 500 nM; against SIK2 it was greater than 500 nM.

On to `COc1cc(-c2cnn3cc(C(C)(C)C(N)=O)ccc23)cc(OC(F)F)c1C(=O)NC1CC1` [Cpd 244, 4-[6-(2-amino-1,1-dimethyl-2-oxo-ethyl)pyrazolo[1,5-a]pyridin-3-yl]-N-cyclopropyl-2-(difluoromethoxy)-6-methoxy-benzamide], for which the IC50 against SIK3 was 10 to 100 nM; against SIK1 it was greater than 500 nM; on SIK2 it was greater than 500 nM.

Consider `COc1cc(-c2cnn3cc(C(C)(C)S(C)(=O)=O)ccc23)cc(OC(F)F)c1C(=O)N[C@@H]1C[C@@H]1F` [Cpd 246, 2-(difluoromethoxy)-N-[(1R,2S)-2-fluorocyclopropyl]-6-methoxy-4-[6-(1-methyl-1-methylsulfonyl-ethyl)pyrazolo[1,5-a]pyridin-3-yl]benzamide], for which the IC50 against SIK3 was 10 to 100 nM; against SIK1, greater than 500 nM; against SIK2 it was greater than 500 nM.

As for `COc1cc(-c2cnn3cc(C(C)(C)c4noc(C)n4)ccc23)cc(OC(F)F)c1C(=O)NC1CC1` [Cpd 247, N-cyclopropyl-2-(difluoromethoxy)-6-methoxy-4-[6-[1-methyl-1-(5-methyl-1,2,4-oxadiazol-3-yl)ethyl]pyrazolo[1,5-a]pyridin-3-yl]benzamide], the half-inhibitory concentration (IC50) was 10 to 100 nM against SIK3, greater than 500 nM at SIK1 and greater than 500 nM against SIK2.

`CCNC(=O)C(C)(C)c1ccc2c(-c3cc(OC)c(C(=O)NC4CC4)c(OC(F)F)c3)cnn2c1` [Cpd 249, N-cyclopropyl-2-(difluoromethoxy)-4-[6-[2-(ethylamino)-1,1-dimethyl-2-oxo-ethyl]pyrazolo[1,5-a]pyridin-3-yl]-6-methoxy-benzamide]: the IC50 against SIK3 was 10 to 100 nM; on SIK1 it was greater than 500 nM; on SIK2, greater than 500 nM.

For the compound `COc1cc(-c2cnn3cc(C(C)(C)C#N)ccc23)cc(F)c1C(=O)NC1CC1` [Cpd 252, 4-[6-(1-cyano-1-methyl-ethyl)pyrazolo[1,5-a]pyridin-3-yl]-N-cyclopropyl-2-fluoro-6-methoxy-benzamide], the IC50 was 100 to 500 nM on SIK3, greater than 500 nM at SIK1 and greater than 500 nM against SIK2.

Regarding `COc1cc(-c2cnn3cc(C(C)(C)C#N)ccc23)cc(OC)c1C(=O)NC1CC1` [Cpd 259, 4-[6-(1-cyano-1-methyl-ethyl)pyrazolo[1,5-a]pyridin-3-yl]-N-cyclopropyl-2,6-dimethoxy-benzamide], the IC50 is 10 to 100 nM against SIK3, greater than 500 nM against SIK1 and greater than 500 nM against SIK2.

Regarding `COCCOc1cc(-c2cnn3cc(C(C)(C)C#N)ccc23)cc(OC)c1C(=O)NC1CC1` [Cpd 260, 4-[6-(1-cyano-1-methyl-ethyl)pyrazolo[1,5-a]pyridin-3-yl]-N-cyclopropyl-2-methoxy-6-(2-methoxyethoxy)benzamide], the figures for the half-maximal inhibitory concentration (IC50) on SIK3, against SIK1 and against SIK2 were 100 to 500 nM, greater than 500 nM and greater than 500 nM, respectively.

As for `COc1cc(-c2cnn3cc(C(C)(C)C#N)ccc23)cc(OCCO)c1C(=O)NC1CC1` [Cpd 263, 4-[6-(1-cyano-1-methyl-ethyl)pyrazolo[1,5-a]pyridin-3-yl]-N-cyclopropyl-2-(2-hydroxyethoxy)-6-methoxy-benzamide], the IC50 against SIK3 was 100 to 500 nM; on SIK1, greater than 500 nM; against SIK2 it was greater than 500 nM.

As to `CCCCOC(=O)NC(C)(C)c1ccc2c(-c3cc(OC)c(C(=O)N[C@@H]4C[C@@H]4F)c(OC(F)F)c3)cnn2c1` [Cpd 264, butyl N-[1-[3-[3-(difluoromethoxy)-4-[[(1R,2S)-2-fluorocyclopropyl]carbamoyl]-5-methoxy-phenyl]pyrazolo[1,5-a]pyridin-6-yl]-1-methyl-ethyl]carbamate], the IC50 was 10 to 100 nM against SIK3, greater than 500 nM at SIK1 and greater than 500 nM against SIK2.

As to `COc1cc(-c2cnn3cc(C4(NCC#N)CCC4)ccc23)cc(OC(F)F)c1C(=O)N[C@@H]1C[C@@H]1F` [Cpd 270, 4-[6-[1-(cyanomethylamino)cyclobutyl]pyrazolo[1,5-a]pyridin-3-yl]-2-(difluoromethoxy)-N-[(1R,2S)-2-fluorocyclopropyl]-6-methoxy-benzamide], the half-inhibitory concentration (IC50) at SIK3 was 10 to 100 nM; against SIK1 it was greater than 500 nM; against SIK2 it was greater than 500 nM.

For `COc1cc(-c2cnn3cc(C4(NCC(F)F)CCC4)ccc23)cc(OC(F)F)c1C(=O)N[C@@H]1C[C@@H]1F` [Cpd 271, 4-[6-[1-(2,2-difluoroethylamino)cyclobutyl]pyrazolo[1,5-a]pyridin-3-yl]-2-(difluoromethoxy)-N-[(1R,2S)-2-fluorocyclopropyl]-6-methoxy-benzamide], the IC50 on SIK3 is 10 to 100 nM; against SIK1, greater than 500 nM; at SIK2 it was greater than 500 nM.

Take `COc1cc(-c2cnn3cc(C4(C(=O)N5CCOCC5)CCC4)ccc23)cc(OC(F)F)c1C(=O)N[C@@H]1C[C@@H]1F` [Cpd 274, 2-(difluoromethoxy)-N-[(1R,2S)-2-fluorocyclopropyl]-6-methoxy-4-[6-[1-(morpholine-4-carbonyl)cyclobutyl]pyrazolo[1,5-a]pyridin-3-yl]benzamide]: the IC50 on SIK3 is 100 to 500 nM; against SIK1 it was greater than 500 nM; against SIK2, greater than 500 nM.

`CCN(CC)CC(C)(C)c1ccc2c(-c3cc(OC)c(C(=O)N[C@@H]4C[C@@H]4F)c(OC(F)F)c3)cnn2c1` [Cpd 276, 4-[6-[2-(diethylamino)-1,1-dimethyl-ethyl]pyrazolo[1,5-a]pyridin-3-yl]-2-(difluoromethoxy)-N-[(1R,2S)-2-fluorocyclopropyl]-6-methoxy-benzamide]: the half-inhibitory concentration (IC50) against SIK3 is 10 to 100 nM; at SIK1 it was greater than 500 nM; at SIK2, greater than 500 nM.
